Data: patent US9168243B2, “Pharmaceutical compositions comprising 8-substituted dibenzylbutyrolactone lignans” (priority 2010, dated 2015)

Tested on: Akt
Experiment: Confocal microscopy of Akt localization
Assay type: cell-based
Conditions: androgen-deprived LNCaP; 100 μM NTG, 2 hours
Description: After treatments, the cells cultured on coverslips were washed with PBS and fixed with 3% paraformaldehyde for 15 minutes at room temperature. The samples were permeabilized and blocked for one hour in 3% BSA 0.1% Tween in PBS. Akt was labeled with rabbit anti-Akt antibody (Cell signaling) and Alexa 546-conjugated anti-rabbit secondary antibody (Molecular Probes). After washing with PBS, the samples were mounted with DAPI Vectashield (Vector Laboratories) and viewed by Zeiss LSM 510 META laser-scanning confocal microscope (63× oil objective, 543 nm excitation).
LNCaP cells (+/−1 nM androgen) were treated with 0-100 μM enterolactone (ENL), matairesinol (MAT) or NTG for 1 hour prior to preparation of total cell lysates (FIG. 4A). The relative decrease in pAkt/Akt ratio was quantified from western blot analysis with Akt (60 kDa) and phospho-Akt(ser473) (Mean±SEM; n=4; Student's t-test *p<0.05, **p<0.01). Alternatively, androgen-deprived LNCaP cells were incubated with 100 μM NTG for 2 hours, fixed and labeled with Akt antibody followed by Alexa 546-conjugated secondary antibody. The samples were viewed at LSM 510 confocal microscope (63× oil objective, 543 nm excitation) (FIG. 4B). […] The western blot analysis with Akt, phospho-Akt(ser473), GSK-3β and phospho-GSK-3β(ser9) was quantified. […]

COc1cc(CC2COC(=O)C2(O)Cc2ccc(O)c(OC)c2)ccc1O (stereo not shown) [NTG, Nortrachelogenin]
cellular localization of Akt: increases cytoplasmic localization of Akt
